With `Cc1cc(NC(=O)/C(=N/OCC(C)C)c2ccccc2)cnc1C` [Ex-8, (2E)-N-(5,6-dimethyl-3-pyridyl)-2-isobutoxyimino-2-phenyl-acetamide] the melting point was 169 °C.

From US20220235005A1, “FUNGICIDAL N-(PYRID-3-YL)CARBOXAMIDES” (BASF SE, priority 2019, published 2022)
